What was measured:
[1] = molecular target: Integrin alpha-V/beta-8 (Homo sapiens, UniProt P06756+P26012); assay: Inhibition of LAP binding to human integrin alphavbeta8 receptor after 1 hr by solid-phase binding assay; format: protein-complex assay
[2] = molecular target: Integrin alpha-V/beta-6 (Homo sapiens, UniProt P06756+P18564); assay: Inhibition of LAP binding to human integrin alphavbeta6 receptor after 1 hr by solid-phase binding assay; format: protein-complex assay
[3] = species: Homo sapiens; assay: Selectivity ratio of IC50 for human integrin alphavbeta6 receptor to IC50 for human integrin alphavbeta8 receptor

Chain of Integrin alpha-V/beta-8 (P06756 31-889 limits assumed): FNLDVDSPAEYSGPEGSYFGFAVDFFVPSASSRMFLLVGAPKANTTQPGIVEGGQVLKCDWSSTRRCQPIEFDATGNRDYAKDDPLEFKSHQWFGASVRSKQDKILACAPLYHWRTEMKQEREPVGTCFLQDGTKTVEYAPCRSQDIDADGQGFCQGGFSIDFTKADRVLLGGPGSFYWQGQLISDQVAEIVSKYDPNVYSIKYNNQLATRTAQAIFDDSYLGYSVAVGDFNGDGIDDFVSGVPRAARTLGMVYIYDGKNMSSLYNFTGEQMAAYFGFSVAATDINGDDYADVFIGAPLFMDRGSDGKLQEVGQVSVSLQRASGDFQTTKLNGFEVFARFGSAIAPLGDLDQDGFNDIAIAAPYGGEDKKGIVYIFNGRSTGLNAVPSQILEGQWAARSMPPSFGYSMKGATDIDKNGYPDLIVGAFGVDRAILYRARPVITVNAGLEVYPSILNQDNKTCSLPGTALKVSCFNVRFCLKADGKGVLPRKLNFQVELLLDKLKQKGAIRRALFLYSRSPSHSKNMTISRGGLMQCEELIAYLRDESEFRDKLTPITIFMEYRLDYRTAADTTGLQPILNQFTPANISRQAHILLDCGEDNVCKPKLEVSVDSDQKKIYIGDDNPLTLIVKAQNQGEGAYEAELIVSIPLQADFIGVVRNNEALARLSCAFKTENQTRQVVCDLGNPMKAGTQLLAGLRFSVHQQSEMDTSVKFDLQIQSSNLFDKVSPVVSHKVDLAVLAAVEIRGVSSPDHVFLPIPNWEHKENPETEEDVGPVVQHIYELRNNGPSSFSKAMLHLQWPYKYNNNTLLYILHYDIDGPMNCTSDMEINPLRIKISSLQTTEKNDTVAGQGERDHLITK
Chain of Integrin alpha-V/beta-8 (P06756 891-1048 limits assumed): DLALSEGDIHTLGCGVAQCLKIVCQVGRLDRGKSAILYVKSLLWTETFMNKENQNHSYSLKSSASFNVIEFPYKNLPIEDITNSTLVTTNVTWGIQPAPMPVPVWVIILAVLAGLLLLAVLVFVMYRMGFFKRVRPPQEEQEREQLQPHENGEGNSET
Chain of Integrin alpha-V/beta-8 (P26012 43-769 limits assumed): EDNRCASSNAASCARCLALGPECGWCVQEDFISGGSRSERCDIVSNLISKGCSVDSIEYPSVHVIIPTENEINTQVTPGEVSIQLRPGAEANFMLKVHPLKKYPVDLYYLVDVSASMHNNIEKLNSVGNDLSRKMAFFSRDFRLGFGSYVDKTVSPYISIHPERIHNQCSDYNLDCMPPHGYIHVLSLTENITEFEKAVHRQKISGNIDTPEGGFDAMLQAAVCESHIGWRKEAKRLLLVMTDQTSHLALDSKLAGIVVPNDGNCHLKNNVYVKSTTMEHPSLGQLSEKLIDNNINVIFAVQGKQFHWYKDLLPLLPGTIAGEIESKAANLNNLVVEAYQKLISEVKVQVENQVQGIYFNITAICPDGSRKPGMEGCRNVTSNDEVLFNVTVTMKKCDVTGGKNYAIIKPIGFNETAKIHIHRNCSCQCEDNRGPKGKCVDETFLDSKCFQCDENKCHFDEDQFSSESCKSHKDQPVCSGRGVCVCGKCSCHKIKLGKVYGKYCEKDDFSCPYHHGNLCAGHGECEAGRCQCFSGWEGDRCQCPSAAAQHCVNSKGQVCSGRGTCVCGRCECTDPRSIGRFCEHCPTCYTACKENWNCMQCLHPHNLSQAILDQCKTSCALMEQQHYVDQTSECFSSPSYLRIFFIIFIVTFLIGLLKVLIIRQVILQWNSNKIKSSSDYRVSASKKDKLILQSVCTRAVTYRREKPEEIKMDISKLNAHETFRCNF
Chain of Integrin alpha-V/beta-6 (P06756 31-889 limits assumed): as the sequence (P06756 31-889 limits assumed) above
Chain of Integrin alpha-V/beta-6 (P06756 891-1048 limits assumed): as the sequence (P06756 891-1048 limits assumed) above
Chain of Integrin alpha-V/beta-6 (P18564 22-788 limits assumed): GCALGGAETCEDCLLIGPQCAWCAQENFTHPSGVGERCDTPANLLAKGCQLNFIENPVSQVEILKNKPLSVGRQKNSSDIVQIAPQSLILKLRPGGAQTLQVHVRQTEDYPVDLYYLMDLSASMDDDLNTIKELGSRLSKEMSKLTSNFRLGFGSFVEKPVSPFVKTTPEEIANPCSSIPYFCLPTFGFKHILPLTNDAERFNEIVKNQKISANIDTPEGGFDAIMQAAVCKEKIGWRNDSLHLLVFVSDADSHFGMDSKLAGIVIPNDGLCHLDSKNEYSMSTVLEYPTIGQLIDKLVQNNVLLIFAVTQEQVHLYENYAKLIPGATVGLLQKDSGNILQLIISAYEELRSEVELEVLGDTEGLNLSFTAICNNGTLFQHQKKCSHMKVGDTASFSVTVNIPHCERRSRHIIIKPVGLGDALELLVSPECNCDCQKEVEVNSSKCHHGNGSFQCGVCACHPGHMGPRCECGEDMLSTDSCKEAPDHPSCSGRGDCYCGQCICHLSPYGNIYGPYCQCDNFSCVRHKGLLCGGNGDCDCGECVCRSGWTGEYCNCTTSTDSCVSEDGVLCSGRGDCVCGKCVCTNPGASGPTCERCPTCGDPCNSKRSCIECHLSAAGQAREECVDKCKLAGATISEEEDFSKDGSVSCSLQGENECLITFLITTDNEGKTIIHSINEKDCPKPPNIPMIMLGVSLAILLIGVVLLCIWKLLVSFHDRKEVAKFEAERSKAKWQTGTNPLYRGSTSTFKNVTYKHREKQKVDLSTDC

CC(C)C[C@@H]1NC(=O)[C@H](CC(=O)O)NC(=O)[C@H]([C@@H](C)O)NC(=O)[C@H](CCCNC(=N)N)NC(=O)[C@H](Cc2ccccc2)NC(=O)[C@H](C)NC(=O)[C@@H]2CCCN2C(=O)[C@H]2CCCN2C1=O
IC50 ([1]; read-out: IC50): 4.3 nM
IC50 ([2]; read-out: IC50): 256 nM
Ratio IC50 [3]: 60

CC(C)C[C@@H]1NC(=O)[C@H](CC(=O)O)NC(=O)[C@H]([C@@H](C)O)NC(=O)[C@H](CCCNC(=N)N)NC(=O)[C@H](C)NC(=O)[C@H](CC(C)C)NC(=O)[C@@H]2CCCN2C(=O)[C@H]2CCCN2C(=O)[C@H](C)NC(=O)[C@H](C)NC1=O
IC50 ([1]; read-out: IC50): 153 nM
IC50 ([2]; read-out: IC50): 94.5 nM

CC(=O)NCCCCCCN1C(=O)[C@H]2CCCN2C(=O)[C@H](CC(C)C)NC(=O)[C@H](CC(=O)O)NC(=O)CNC(=O)[C@H](CCCNC(=N)N)NC(=O)[C@H](CC(C)C)NC(=O)CNC(=O)[C@@H]1C
IC50 ([1]; read-out: IC50): 20 nM

CC(C)C[C@@H]1NC(=O)[C@H](CC(=O)O)NC(=O)[C@@H]([C@H](C)O)NC(=O)[C@H](CCCNC(=N)N)NC(=O)[C@H](Cc2ccccc2)NC(=O)[C@H](C)NC(=O)[C@@H]2CCCN2C(=O)[C@H]2CCCN2C1=O
IC50 [1]: Not Active
IC50 [2]: Not Active

CCCCCCNC1C[C@H]2C(=O)NCC(=O)N[C@@H](CC(C)C)C(=O)N[C@@H](CCCNC(=N)N)C(=O)NCC(=O)N[C@@H](CC(=O)O)C(=O)N[C@@H](CC(C)C)C(=O)N3CCC[C@@H]3C(=O)N2C1 (stereo not given in full)
IC50 ([1]; read-out: IC50): 12.8 nM
IC50 ([2]; read-out: IC50): 204 nM
Ratio IC50 [3]: 16

CC(C)C[C@@H]1NC(=O)[C@H](CC(=O)O)NC(=O)CNC(=O)[C@H](CCCNC(=N)N)NC(=O)[C@H](C)NC(=O)[C@H](C)NC(=O)[C@@H]2CCCN2C(=O)[C@H]2CCCN2C1=O
IC50 ([1]; read-out: IC50): 8.1 nM
IC50 ([2]; read-out: IC50): 114 nM
Ratio IC50 [3]: 14.1

CC(=O)NCCCCCCNC(=N)NCCC[C@@H]1NC(=O)[C@H](CC(C)C)NC(=O)CNC(=O)[C@@H]2CCCN2C(=O)[C@H]2CCCN2C(=O)[C@H](CC(C)C)NC(=O)[C@H](CC(=O)O)NC(=O)CNC1=O
IC50 ([1]; read-out: IC50): 230 nM

CC(C)C[C@@H]1NC(=O)[C@H](CC(=O)O)NC(=O)CNC(=O)[C@H](CCCNC(=N)N)NC(=O)[C@H](C)NC(=O)[C@H](CC(C)C)NC(=O)[C@@H]2CCCN2C(=O)[C@H]2CCCN2C(=O)[C@H](C)NC(=O)[C@H](C)NC1=O
IC50 ([1]; read-out: IC50): 109 nM
IC50 ([2]; read-out: IC50): 13.4 nM

CC(=O)NCCCCN1C(=O)[C@H]2CCCN2C(=O)[C@H](CC(C)C)NC(=O)[C@H](CC(=O)O)NC(=O)CNC(=O)[C@H](CCCNC(=N)N)NC(=O)[C@H](CC(C)C)NC(=O)CNC(=O)[C@@H]1C
IC50 ([1]; read-out: IC50): 27 nM

CCNC(=N)NCCC[C@@H]1NC(=O)[C@H](CC(C)C)NC(=O)CNC(=O)[C@@H]2CCCN2C(=O)[C@H]2CCCN2C(=O)[C@H](CC(C)C)NC(=O)[C@H](CC(=O)O)NC(=O)CNC1=O
IC50 ([1]; read-out: IC50): 38 nM
IC50 ([2]; read-out: IC50): 769 nM
Ratio IC50 [3]: 20

CC(C)C[C@@H]1NC(=O)[C@H](C)NC(=O)[C@@H]2CCCN2C(=O)[C@@H](C(C)C)N(C)C(=O)[C@H](CC(C)C)NC(=O)[C@H](CC(=O)O)NC(=O)CNC(=O)[C@H](CCCNC(=N)N)NC1=O
IC50 ([1]; read-out: IC50): 19 nM
IC50 ([2]; read-out: IC50): 31 nM
Ratio IC50 [3]: 1.6

CC(C)C[C@H]1NC(=O)[C@H](CC(=O)O)NC(=O)CNC(=O)[C@H](CCCNC(=N)N)NC(=O)[C@H](Cc2ccccc2)NC(=O)[C@H](C)NC(=O)[C@@H]2CCCN2C(=O)[C@H]2CCCN2C1=O
IC50 [1]: Not Active
IC50 ([2]; read-out: IC50): 559 nM

CC(=O)NCCCC[C@@H]1C(=O)N2CCC[C@H]2C(=O)NCC(=O)N[C@@H](CC(C)C)C(=O)N[C@@H](CCCNC(=N)N)C(=O)NCC(=O)N[C@@H](CC(=O)O)C(=O)N[C@@H](CC(C)C)C(=O)N1C
IC50 ([1]; read-out: IC50): 57 nM
IC50 ([2]; read-out: IC50): 215 nM
Ratio IC50 [3]: 3.8

CC(C)C[C@@H]1NC(=O)[C@@H]2CCCN2C(=O)[C@H]2CCCN2C(=O)[C@H](CC(C)C)NC(=O)[C@H](CC(=O)O)NC(=O)CNC(=O)[C@H](CCCNC(=N)N)NC(=O)[C@H](C)NC(=O)[C@H](C)NC(=O)[C@H](C)NC1=O
IC50 ([1]; read-out: IC50): 631 nM
IC50 ([2]; read-out: IC50): 889 nM
Ratio IC50 [3]: 1.4

CC(C)C[C@@H]1NC(=O)[C@H](CC(=O)O)NC(=O)[C@H]([C@@H](C)O)NC(=O)[C@H](CCCNC(=N)N)NC(=O)[C@H](C)NC(=O)[C@@H]2CCCN2C(=O)[C@H]2CCCN2C(=O)[C@H](CC(C)C)NC(=O)[C@H](C)NC(=O)[C@H](C)NC1=O
IC50 ([1]; read-out: IC50): 1290 nM
IC50 ([2]; read-out: IC50): 264 nM

CC(C)C[C@@H]1NC(=O)[C@@H]2CCCN2C(=O)[C@H]2CCCN2C(=O)[C@H](CC(C)C)NC(=O)[C@H](CC(=O)O)NC(=O)CNC(=O)[C@H](CCCNC(=N)N)NC(=O)[C@H](C)NC1=O
IC50 ([1]; read-out: IC50): 114 nM
IC50 ([2]; read-out: IC50): 420 nM
Ratio IC50 [3]: 3.7

CC(C)C[C@@H]1NC(=O)[C@H](C)NC(=O)[C@H](C)NC(=O)[C@@H]2CCCN2C(=O)[C@H]2CCCN2C(=O)[C@H](CC(C)C)NC(=O)[C@H](CC(=O)O)NC(=O)[C@H]([C@@H](C)O)NC(=O)[C@H](CCCNC(=N)N)NC(=O)[C@H](C)NC1=O
IC50 ([1]; read-out: IC50): 127 nM
IC50 ([2]; read-out: IC50): 720 nM
Ratio IC50 [3]: 5.7
